Source: article PMC10342134, “Isolation and Characterization of Poeciguamerin, a Peptide with Dual Analgesic and Anti-Thrombotic Activity from the Poecilobdella manillensis Leech” (International Journal of Molecular Sciences, 2023)
Bridge positions count the residues as written; N and C are the ends. Ends that are not written are not given here.

How the values were obtained:
FXIIa = target: T1, FXIIa (Homo sapiens, UniProt P00748); assay: Effect on FXIIa activity (chromogenic substrate assay; Dixon plot Ki); assay type: biochemical; conditions: natural poeciguamerin 0-40 μM; FXIIa 10 nM; S-2302 0.2 mM; 50 mM Tris-HCl pH 7.4; 5 min, room temperature; OD405 for 10 min
T1 construct: purchased Enzyme Research Laboratories 1212a
T1 sequence (P00748 373-615 limits assumed): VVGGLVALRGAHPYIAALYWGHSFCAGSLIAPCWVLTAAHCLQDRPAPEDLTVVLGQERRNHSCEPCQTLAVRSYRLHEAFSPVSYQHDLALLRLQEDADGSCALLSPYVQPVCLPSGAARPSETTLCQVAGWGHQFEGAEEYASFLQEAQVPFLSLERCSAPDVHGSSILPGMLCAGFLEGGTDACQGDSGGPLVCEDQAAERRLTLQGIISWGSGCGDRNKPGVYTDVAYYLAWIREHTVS
T1 sequence (P00748 20-372 partner limits assumed): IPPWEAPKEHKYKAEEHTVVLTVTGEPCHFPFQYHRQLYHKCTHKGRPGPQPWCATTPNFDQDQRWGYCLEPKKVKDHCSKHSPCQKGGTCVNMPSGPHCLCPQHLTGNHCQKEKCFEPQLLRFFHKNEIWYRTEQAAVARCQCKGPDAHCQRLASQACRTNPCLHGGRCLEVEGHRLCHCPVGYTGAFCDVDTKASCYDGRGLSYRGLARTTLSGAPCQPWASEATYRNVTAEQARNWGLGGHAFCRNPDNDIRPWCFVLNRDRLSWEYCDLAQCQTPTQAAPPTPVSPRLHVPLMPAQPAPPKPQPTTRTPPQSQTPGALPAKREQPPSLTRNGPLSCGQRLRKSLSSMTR
Excerpt: (§1) Thus, we examined the effects of poeciguamerin on proteases such as FXIIa, kallikrein, trypsin, thrombin, FXa, and elastase using appropriate chromogenic substrates.
(§2) Figure 3 Effects of poeciguamerin on elastase and coagulation. Effects of natural poeciguamerin on elastase (A), FXIIa (B), kallikrein (C), FXa (D), trypsin (E), and thrombin (F) enzymatic activities.
(§3) We mixed poeciguamerin with specific chromogenic substrates and proteases to evaluate the effect of poeciguamerin on various enzymatic activities. […] The proteases and different concentrations of natural poeciguamerin (0, 0.5, 1, 2, 10, 20, 40 μM) were incubated in a total volume of 60 μL in buffer (50 mM Tris-HCl pH 7.4) for 5 min at room temperature. Subsequently, a buffer containing the appropriate enzyme substrate was added to a total volume of 100 μL. Using an enzyme marker, GEN CHS v1.09 software detected OD405 at 30-s intervals and recorded for 10 min to calculate enzyme kinetics.

mice [1] = assay: Tail withdrawal mouse model (hot water bath); assay type: in vivo, mouse (female C57BL/6J); conditions: poeciguamerin 0, 6, 12 mg/kg, tail vein; water 45 °C; maximum time 15 s; n = 5 per group
Description: (§4) To evaluate the biological activity of poeciguamerin, we used the foot-licking mouse model and the tail-withdrawal mouse model. In the foot-licking mouse model, we placed the mice in a hot plate apparatus at a temperature of 55 ± 0.5 °C. The pain thresholds of the mice were measured twice every 15 min and hind paw licking was used as the observation parameter. Female mice showing a pain response within 10–30 s were selected and randomly divided into four groups. In the control group, 25 μL elastase (6 mg/kg) was injected into the base of the right hind paw, while in the experimental group, poeciguamerin (0, 6, 12 mg/kg) was injected intravenously 10 min before the elastase injection. […] The cumulative number of foot licks during the first phase (0–10 min) (Figure 5A) and the second phase (10–30 min) (Figure 5B) was recorded. […] The tails of the mice were stretched in hot water at 45 °C and the time of tail flicking was recorded.
(§5) Figure 5 Effects of poeciguamerin on elastase or hot water bath-induced pain. […] The total time mice spent licking the paw was recorded during the I phase (0–10 min) (A) and the II phase (10–30 min) (B). n = 5 per group. Data are expressed as mean ± SEM and were subjected to an unpaired t-test, *** p < 0.001. […] The tails of the mice were stretched in hot water at 45 °C and the time of the tail flick was recorded (C). n = 5 per group. […]

elastase = target: T2, elastase (Homo sapiens, UniProt P08246); assay: Effect on elastase activity (chromogenic substrate assay; Dixon plot Ki); assay type: biochemical
T2 construct: purchased Sigma-Aldrich E8140
T2 sequence (P08246 30-267): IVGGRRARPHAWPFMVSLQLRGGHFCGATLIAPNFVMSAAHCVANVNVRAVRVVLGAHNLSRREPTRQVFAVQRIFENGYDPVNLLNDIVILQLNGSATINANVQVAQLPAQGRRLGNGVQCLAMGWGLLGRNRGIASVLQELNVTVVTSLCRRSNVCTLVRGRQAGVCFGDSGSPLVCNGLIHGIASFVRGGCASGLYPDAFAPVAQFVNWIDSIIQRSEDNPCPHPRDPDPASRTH
Excerpt: as §1, §2, §3

FXa = assay: Effect on FXa activity (chromogenic substrate assay); assay type: biochemical; conditions: natural poeciguamerin 0-40 μM; FXa 20 nM; S-2222 0.2 mM; 50 mM Tris-HCl pH 7.4; 5 min, room temperature; OD405 for 10 min
Description: as §2
(§6) We mixed poeciguamerin with specific chromogenic substrates and proteases to evaluate the effect of poeciguamerin on various enzymatic activities. These enzymes and substrates included FXIIa (10 nM, 1212a, Enzyme Research Laboratories, South Bend, IN, USA; substrate: 0.2 mM, S-2302, Chromogenix, Milan, Italy), kallikrein (80 nM, 1303, Enzyme Research Laboratories, South Bend, IN, USA; substrate: 0.2 mM, S-2302, Chromogenix, Milan, Italy), trypsin (0.8 μM, T2600000, Sigma-Aldrich, St. Louis, MO, USA; substrate: 0.2 mM, S-2222, Chromogenix, Milan, Italy), thrombin (10 nM, 1002a, Enzyme Research Laboratories, South Bend, IN, USA; substrate: 0.2 mM, S-2238, Chromogenix, Milan, Italy), FXa (20 nM, 1011, Enzyme Research Laboratories, South Bend, IN, USA; substrate: 0.2 mM, S-2222, Chromogenix, Milan, Italy), elastase (0.4 μM, E8140, Sigma-Aldrich, St. Louis, MO, USA; substrate: 0.2 mM, 324696, Sigma-Aldrich, St. Louis, MO, USA), and other proteases were affected. […] Using an enzyme marker, GEN CHS v1.09 software detected OD405 at 30-s intervals and recorded for 10 min to calculate enzyme kinetics.

kallikrein = target: T3, kallikrein (Homo sapiens, UniProt P03952); assay: Effect on kallikrein activity (chromogenic substrate assay; Dixon plot Ki); assay type: biochemical; conditions: natural poeciguamerin 0-40 μM; kallikrein 80 nM; S-2302 0.2 mM; 50 mM Tris-HCl pH 7.4; 5 min, room temperature; OD405 for 10 min
T3 construct: purchased Enzyme Research Laboratories 1303
T3 sequence (P03952 391-638 limits assumed): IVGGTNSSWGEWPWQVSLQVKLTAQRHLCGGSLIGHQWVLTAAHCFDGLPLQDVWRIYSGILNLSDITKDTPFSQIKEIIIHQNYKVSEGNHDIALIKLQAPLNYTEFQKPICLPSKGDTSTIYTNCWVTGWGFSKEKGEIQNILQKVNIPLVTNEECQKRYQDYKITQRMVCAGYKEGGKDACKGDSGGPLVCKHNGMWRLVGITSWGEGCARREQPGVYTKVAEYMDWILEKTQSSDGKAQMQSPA
T3 sequence (P03952 20-390 partner limits assumed): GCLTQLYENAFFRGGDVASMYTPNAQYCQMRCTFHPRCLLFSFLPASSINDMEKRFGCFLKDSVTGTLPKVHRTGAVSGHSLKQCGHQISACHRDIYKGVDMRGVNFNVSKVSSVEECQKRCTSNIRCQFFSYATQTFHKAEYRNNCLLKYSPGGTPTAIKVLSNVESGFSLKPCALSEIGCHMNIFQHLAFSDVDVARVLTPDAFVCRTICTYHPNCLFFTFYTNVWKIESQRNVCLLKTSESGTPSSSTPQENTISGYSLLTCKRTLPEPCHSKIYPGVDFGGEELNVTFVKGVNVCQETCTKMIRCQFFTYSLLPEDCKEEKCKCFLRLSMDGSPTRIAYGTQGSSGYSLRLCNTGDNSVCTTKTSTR
Excerpt: as §1, §2, §3

mice [2] = assay: Foot-licking mouse model (elastase-induced pain); assay type: in vivo, mouse (female C57BL/6J); conditions: poeciguamerin 0, 6, 12 mg/kg i.v. 10 min before 25 μL elastase (6 mg/kg) in right hind paw; phase I 0–10 min and phase II 10–30 min; n = 5 per group
Description: as §4, §5

thrombin = assay: Effect on thrombin activity (chromogenic substrate assay); assay type: biochemical; conditions: natural poeciguamerin 0-40 μM; thrombin 10 nM; S-2238 0.2 mM; 50 mM Tris-HCl pH 7.4; 5 min, room temperature; OD405 for 10 min
Description: as §2, §6

trypsin = assay: Effect on trypsin activity (chromogenic substrate assay); assay type: biochemical; conditions: natural poeciguamerin 0-40 μM; trypsin 0.8 μM; S-2222 0.2 mM; 50 mM Tris-HCl pH 7.4; 5 min, room temperature; OD405 for 10 min
Description: as §2, §6

With “VDEKAEVTDDLCGDKTCSGAQVCQNDACVCSPVRCMIMCPNGFKLDENGCEYPCSCA (disulfide 12-23, 17-28, 30-50, 35-54, 39-56) [poeciguamerin]” the “effect on FXIIa activity” value (FXIIa) was “slight inhibition”, the “effect on hot water-induced pain response (tail withdrawal latency)” value (mice [1]) was “attenuated this pain response” and the “effect on elastase activity” value (elastase; natural poeciguamerin 0-40 μM, elastase 0.4 μM, substrate 324696 0.2 mM, 50 mM Tris-HCl pH 7.4, 5 min, room temperature, OD405 for 10 min) was “dose-dependent inhibition”. The “inhibition of elastase activity by chromatographic peak fractions” value (elastase; peak fractions of P. manillensis salivary gland secretions (Sephadex G-50, RP-HPLC C8, Mono S FPLC), elastase chromogenic substrate assay) was “significantly inhibited elastase activity”, the “effect on FXa activity” value (FXa) was “no inhibitory effects” and the “effect on kallikrein activity” value (kallikrein) was “slight inhibition”. The “effect on elastase-induced pain (cumulative foot licks)” value (mice [2]) was “attenuated this painful response”, the “effect on thrombin activity” value (thrombin) was “no inhibitory effects” and the “effect on trypsin activity” value (trypsin) was “no inhibitory effects”.
